This note sets out measurements from patent US9809604B2, “DGAT1 inhibitor and preparation method and use thereof” (Qingdao Huanghai Pharmaceutical Co., Ltd., priority 2013, dated 2017).

Series [1] is described as follows: Plasma pharmacokinetics in male SD rats. It is filed as in vivo. The note with it: male, SD, plasma, rat. As for the experimental part: (3) Pharmacokinetics of Test Compounds
The purpose of this study is to determine the plasma pharmacokinetics of male SD rats. Two animals will receive a solution of test article in vehicle by single intravenous bolus via tail vein; the dosage is 2 mg/kg. Blood samples are taken at specified time points (0, 0.0833, 0.25, 0.5, 1, 2, 4, 7, 24 h) after dosing. Another two animals will receive a solution or suspension of TA in vehicle by oral gavage at 10 mg/kg. The schedule for sample collection is 0.5, 1, 2, 3, 4, 6, 24 h after dosing. A LC/MS/MS method is used to measure the concentration of test compound in plasma. Non-compartmental pharmacokinetic analysis is performed on the plasma concentration-time data. PK parameters of calculations are done using Phoenix WinNonlin. 6.2.1 software program.

The target in the next series is T1, DGAT1 (Homo sapiens, UniProt O75907).
T1 sequence (O75907 1-488): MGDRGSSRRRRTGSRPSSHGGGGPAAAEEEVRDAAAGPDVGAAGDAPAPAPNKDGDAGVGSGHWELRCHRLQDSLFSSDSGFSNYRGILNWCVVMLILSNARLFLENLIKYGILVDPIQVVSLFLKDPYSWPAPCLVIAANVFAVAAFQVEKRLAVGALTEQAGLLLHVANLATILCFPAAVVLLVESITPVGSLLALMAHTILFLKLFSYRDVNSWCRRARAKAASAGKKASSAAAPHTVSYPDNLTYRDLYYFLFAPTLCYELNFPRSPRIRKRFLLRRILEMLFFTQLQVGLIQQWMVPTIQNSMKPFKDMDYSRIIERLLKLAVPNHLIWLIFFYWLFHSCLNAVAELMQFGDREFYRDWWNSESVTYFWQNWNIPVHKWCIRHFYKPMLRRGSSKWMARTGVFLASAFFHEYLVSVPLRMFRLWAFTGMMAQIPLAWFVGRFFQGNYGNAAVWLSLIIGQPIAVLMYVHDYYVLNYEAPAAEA
In words: Human DGAT1 IC50 enzyme assay (Flashplate, 14C-labeled acyl-CoA). It counts as biochemical. Also noted: made in house. As for the experimental part: The ability of compounds to inhibit DGAT enzyme activity is determined by calculating IC50 values of test compounds. Ki values of DGAT1 are calculated as follows: Cheng-Prusoff equation: Ki=IC50/(1+[S]/Km)
(1) Human DGAT1 IC50 (nM) Experiment
Human DGAT1 activity was determined as follows:
Expressing human DGAT1 enzyme, used diacylglycerol and 14C-labeled acyl-CoA as the substrate, choose PE Company Flashplate testing board to build DGAT1 enzyme reaction system. 14C-labeled acyl-CoA binds to diacylglycerol by covalent bonding after enzymology reaction, and generates the product of 14C-labeled triglyceride. 14C-labeled acyl-CoA substrate is dissolved in reaction solution and 14C-labeled triglyceride product combine with phospholipids of Flashplate plate bottom layer, thus effectively separate labeled substrates and products. The radioactive of 14C-labeled triglyceride which is combined with phospholipid layer is counted, and the potencies of DGAT-1 inhibition for the compounds are determined by calculating the IC50 values.

Where [2] appears, read: average of first and second, read-out: hDGAT1 IC50(nM) Average.
Setting [3] is: first determination, read-out: hDGAT1 IC50(nM) First.
Setting [4] is: second determination, read-out: hDGAT1 IC50(nM) Second.

Read-outs that look alike come from different tables or passages of the source.

Regarding `Nc1ncnc2c1C(=O)N(c1ccc([C@H]3CC[C@H](CC(=O)O)CC3)cc1)CCO2` [PF-04620110, reference compound], the AUC(0-t) in series [1] (iv, 1.78-2.06 mg/kg as printed in each cell, read-out: AUC0-1 (ng · n/mL)) stood at 2920 ng·h/mL. In series [1] (oral, 10 mg/kg), the bioavailability was 109%.

In the case of `CCC(C(=O)O)n1cc(-c2ccc(N3CCOc4ncnc(N)c4C3=O)cc2C)cn1` (centres unmarked) [Compound 64, 2-(4-(4-(4-amino-5-oxo-7,8-dihydropyrimido [5,4-f][1,4]oxazepin-6(5H)-yl)-2-methylphenyl)-1H-pyrazol-1-yl)butanoic acid], the concentration for half-maximal inhibition (IC50) (as a rule, the concentration needed to halve the response being measured) on DGAT1 (setting [2]) came out at 57.6 nM; on DGAT1 (setting [3]), 38.7 nM; on DGAT1 (setting [4]), 76.5 nM.

As for `Cc1cc(N2CCOc3ncnc(N)c3C2=O)cc(C)c1-c1cn(CC(F)F)nc1C` [Compound 43, 4-amino-6-(4-(1-(2,2-difluoroethyl)-3-methyl-1H-pyrazol-4-yl)-3,5-dimethylphenyl)-7,8-dihydropyrimido[5,4-f][1,4]oxazepin-5(6H)-one], the IC50 at DGAT1 (setting [2]) was 17.6 nM; on DGAT1 (setting [3]), 18.5 nM; at DGAT1 (setting [4]) it was 16.7 nM.

`CCC(C(=O)O)n1cc(-c2ccc(N3CCOc4ncnc(N)c4C3=O)cc2Cl)cn1` (centres unmarked) [Compound 61, 2-(4-(4-(4-amino-5-oxo-7,8-dihydropyrimido [5,4-f][1,4]oxazepin-6(5H)-yl)-2-chlorophenyl)-1H-pyrazol-1-yl)butanoic acid]: the 50% inhibitory concentration (IC50) on DGAT1 (setting [2]) turned out to be 37.8 nM; on DGAT1 (setting [3]), 28.2 nM; at DGAT1 (setting [4]) it was 47.4 nM.

Turning to `Nc1ncnc2c1C(=O)N(c1ccc(N3CCN(CC(=O)O)C3=O)c(OC(F)(F)F)c1)CCO2` [Compound 7, 2-(3-(4-(4-amino-5-oxo-7,8-dihydropyrimido[5,4-f][1,4]oxazepin-6(5H)-yl)-2-(trifluoromethoxy)phenyl)-2-oxoimidazolidin-1-yl)acetic acid], the IC50 on DGAT1 (setting [2]) stood at 36.9 nM; at DGAT1 (setting [3]) it was 43.5 nM; on DGAT1 (setting [4]) it was 30.4 nM.

As to `Cc1cc(N2CCOc3ncnc(N)c3C2=O)cc(C)c1-c1c(C)nn(CC(F)(F)F)c1C` [Compound 93, 4-amino-6-(4-(3,5-dimethyl-1-(2,2,2-trifluoroethyl)-1H-pyrazol-4-yl)-3,5-dimethylphenyl)-7,8-dihydropyrimido[5,4-f][1,4]oxazepin-5(6H)-one], the values for the IC50 at DGAT1 (setting [2]), at DGAT1 (setting [3]) and on DGAT1 (setting [4]) were 69.4 nM, 64.5 nM and 74.2 nM, respectively.

Consider `Cc1cc(N2CCOc3ncnc(N)c3C2=O)cc(C)c1-c1cn(CCC(=O)O)nc1C` [Compound 83, 3-(4-(4-(4-amino-5-oxo-7,8-dihydropyrimido [5,4-f][1,4]oxazepin-6(5H)-yl)-2,6-dimethylphenyl)-3-methyl-1H-pyrazol-1-yl)propanoic acid], for which the IC50 on DGAT1 (setting [2]) stood at 45.6 nM; on DGAT1 (setting [3]), 52.8 nM; on DGAT1 (setting [4]), 38.4 nM.

Regarding `CC(C(=O)O)n1cc(-c2ccc(N3CCOc4ncnc(N)c4C3=O)cc2Cl)cn1` (centres unmarked) [Compound 34, 2-(4-(4-(4-amino-5-oxo-7,8-dihydropyrimido[5,4-f][1,4]oxazepin-6(5H)-yl)-2-chlorophenyl)-1H-pyrazol-1-yl) propanoic acid], the 50% inhibitory concentration (IC50) was found to be 55.8 nM on DGAT1 (setting [2]), 78 nM on DGAT1 (setting [3]) and 33.6 nM at DGAT1 (setting [4]).

For `CCc1cc(N2CCOc3ncnc(N)c3C2=O)ccc1N1CCN(CC(=O)O)C1=O` [Compound 5, 2-(3-(4-(4-amino-5-oxo-7,8-dihydropyrimido[5,4-f][1,4]oxazepin-6(5H)-yl)-2-ethylphenyl)-2-oxoimidazolidin-1-yl)acetic acid], the IC50 at DGAT1 (setting [2]) came out at 60.3 nM; at DGAT1 (setting [3]) it was 51.6 nM; at DGAT1 (setting [4]) it was 69 nM.

As for `CCc1cc(N2CCOc3ncnc(N)c3C2=O)cc(CC)c1N1CCN(CC(=O)O)C1=O` [Compound 19], the half-inhibitory concentration (IC50) was 101 nM at DGAT1 (setting [2]), 136 nM at DGAT1 (setting [3]) and 66.5 nM at DGAT1 (setting [4]).

Consider `Nc1ncnc2c1C(=O)N(c1ccc(N3CCN(CC4CC4)C3=O)c(Cl)c1)CCO2` [Compound 30, 4-amino-6-(3-chloro-4-(3-(cyclopropylmethyl)-2-oxoimidazolidin-1-yl)phenyl)-7,8-dihydropyrimido [5,4-f][1,4]oxazepin-5(6H)-one], for which the IC50 was determined as 24.4 nM at DGAT1 (setting [2]), 25.4 nM on DGAT1 (setting [3]) and 23.4 nM on DGAT1 (setting [4]).

`CCc1cc(N2CCOc3ncnc(N)c3C2=O)ccc1-c1cnn(CC(C)C)c1` [Compound 90, 4-amino-6-(3-ethyl-4-(1-isobutyl-1H-pyrazol-4-yl)phenyl)-7,8-dihydropyrimido [5,4-f][1,4]oxazepin-5(6H)-one]: the IC50 came out at 60 nM on DGAT1 (setting [2]), 62 nM on DGAT1 (setting [3]) and 58 nM on DGAT1 (setting [4]).

With `Cc1cc(N2CCOc3ncnc(N)c3C2=O)cc(C)c1-c1cn(CC(C)(C)F)nc1C` [Compound 97, 4-amino-6-(4-(1-(2-fluoro-2-methylpropyl)-3-methyl-1H-pyrazol-4-yl)-3,5-dimethylphenyl)-7,8-dihydropyrimido[5,4-f][1,4]oxazepin-5(6H)-one], the IC50 was 26.9 nM at DGAT1 (setting [2]), 30.3 nM on DGAT1 (setting [3]) and 23.4 nM at DGAT1 (setting [4]).

In the case of `Nc1ncnc2c1C(=O)N(c1ccc(-c3cnn(CCC(=O)O)c3)c(F)c1)CCO2` [Compound 37, 3-(4-(4-(4-amino-5-oxo-7,8-dihydropyrimido[5,4-f][1,4]oxazepin-6(5H)-yl)-2-fluorophenyl)-1H-pyrazol-1-yl) propanoic acid], the IC50 came to 79.6 nM on DGAT1 (setting [2]), 84.6 nM at DGAT1 (setting [3]) and 74.5 nM at DGAT1 (setting [4]).

`CC(C)Cn1cc(-c2ccc(N3C[C@@H](C)Oc4ncnc(N)c4C3=O)cc2Cl)cn1` [Compound 45, (R)-4-amino-6-(3-chloro-4-(1-isobutyl-1H-pyrazol-4-yl)phenyl)-8-methyl-7,8-dihydropyrimido[5,4-f][1,4]oxazepin-5(6H)-one]: the values for the concentration for half-maximal inhibition (IC50) at DGAT1 (setting [2]), at DGAT1 (setting [3]) and at DGAT1 (setting [4]) were 16 nM, 17.4 nM and 14.6 nM, respectively.
